Consider two molecules from patent EP1190708A1, “Medical use of substances” (Tinnitus Forschungs- und Entwicklungs GmbH, priority 2000, dated 2002).

Assay [1] concerns inhibitory postsynaptic currents (IPSC) in outer hair cells. Nature of the assay: Voltage-clamp recording of inhibitory postsynaptic currents in outer hair cells of the organ of Corti preparation. In kind it is cell-based, Wistar rats. Details: inhibition of postsynaptic currents (reversibility): dose or concentration left out as unconfirmed. Here is the method: Organs of Corti were dissected from the cochleae of Wistar rats (11-24 days old) as described previously (Oliver, D. and Fakler, B. 1999. J. Physiol. (Lond.) 519 pt. 3, 791-800; Oliver, D., Klöcker, N., Schluck, J., Baukrowitz, T., Rup-persberg, J.P. and Fakler, B. 2000. Neuron 26, 591-601). The electrophysiology on OHCs was also described previously (Oliver, D. et al., 2000, see above).
In Fig 1B, postsynaptic currents were recorded from OHCs in voltage-clamp experiments when cells were held at -64 mV and the whole Corti preparation was superfused with high extracellular K^+ (150 mM) to depolarize the presynapse. Application of high K^+ and toxins as indicated by horizontal bars: current and time scaling as indicated.
In Fig 3, postsynaptic currents were recorded from outer hair cells (OHCs) in voltage-clamp experiments when cells were held at -64 mV and the whole Corti preparation was superfused with high extracellular K^+ to depolarize the presynapse. Application of high K^+ and toxins as indicated by horizontal bars: current and time scaling as indicated. […] This dose-dependent response determined for the IPSC in OHCs is illustrated in Fig. 3B.

In assay [2] the target is T1, alpha9/alpha10 heteromeric acetylcholine receptors expressed in Xenopus oocytes (Rattus norvegicus, UniProt P43144+Q9JLB5).
T1 construct: expressed in transfected cells; host or cells: Xenopus laevis oocytes injected with in vitro synthesised mRNA
T1 sequence (P43144 26-479): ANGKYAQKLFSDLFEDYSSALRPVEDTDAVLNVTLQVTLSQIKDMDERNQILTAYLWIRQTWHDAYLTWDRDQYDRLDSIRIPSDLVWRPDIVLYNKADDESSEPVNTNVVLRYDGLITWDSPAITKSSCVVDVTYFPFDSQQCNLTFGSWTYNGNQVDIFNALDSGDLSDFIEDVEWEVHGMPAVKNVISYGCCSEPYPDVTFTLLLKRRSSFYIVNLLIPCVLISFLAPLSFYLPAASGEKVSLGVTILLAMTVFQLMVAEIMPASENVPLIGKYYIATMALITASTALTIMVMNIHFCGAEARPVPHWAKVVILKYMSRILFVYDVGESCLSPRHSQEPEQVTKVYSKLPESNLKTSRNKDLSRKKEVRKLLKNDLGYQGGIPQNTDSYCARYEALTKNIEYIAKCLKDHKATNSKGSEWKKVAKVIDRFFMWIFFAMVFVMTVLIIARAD
T1 sequence (Q9JLB5 25-447): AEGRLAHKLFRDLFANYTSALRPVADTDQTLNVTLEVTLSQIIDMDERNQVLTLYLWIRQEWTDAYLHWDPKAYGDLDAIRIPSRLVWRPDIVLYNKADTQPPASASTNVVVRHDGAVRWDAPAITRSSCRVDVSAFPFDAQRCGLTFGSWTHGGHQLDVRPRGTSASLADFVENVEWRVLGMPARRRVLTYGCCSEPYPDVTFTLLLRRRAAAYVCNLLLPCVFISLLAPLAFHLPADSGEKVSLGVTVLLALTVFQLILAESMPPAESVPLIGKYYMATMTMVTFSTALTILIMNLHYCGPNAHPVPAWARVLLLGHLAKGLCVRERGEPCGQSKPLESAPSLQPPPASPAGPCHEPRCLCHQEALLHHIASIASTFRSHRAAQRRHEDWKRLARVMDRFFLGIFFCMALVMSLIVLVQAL
Briefly: Voltage-clamp recording of current responses to acetylcholine in oocytes expressing alpha9/alpha10 subunits. Format: cell-based. Here is the method:
In vitro mRNA synthesis and oocyte injections were performed as previously described (Fakler, B., Brandle, U., Glowatzki, E., Weidemann, S., Zenner, H.P. and Ruppersberg, J.P. 1995. Cell 80, 149-154; Oliver, D. et al., 2000, see above). The electrophysiology on oocytes was also performed as described previously (Oliver, D. et al., 2000, see above).
For further characterization of strychnine treatment on the nAChR, the mRNA of alpha9/alpha10 subunits of the acetylcholine receptor were injected in oocytes of Xexopus laevis.
After expression of these subunits, they were investigated by treatment with strychnine in voltage-clamp experiment. The cells were held at -30 mV. Current and time scaling are as indicated. As is shown in Fig. 2, similar results were obtained as in Fig. 1. Consistent with the model shown above, the current responses at the acetylcholine receptor could be blocked reversibly by application with the acetylcholine blocker strychnine.
For further characterization of memantine treatment on the neuronal acetylcholine receptor (nAChR), the mRNA of alpha9-/alpha10 subunits of the acetylcholine receptor were injected in oocytes of Xexopus laevis. After expression of that subunits, these subunits were investigated by treatment with memantine in voltage-clamp experiment. The cells were held at -30 mV. Current and time scaling are as indicated. As is shown in Fig. 4, similar results were obtained as in Fig. 3. In this experiment the polarization potential of the cells was meassured after application of 100 µM acetylcholine in the presence or absence of memantine. Consistent with the results obtained in Fig. 3, the current responses at the acetylcholine receptor could be blocked by application with memantine. A halfmaximal inhibition occurs at concentrations of approximately 1 µM, as is illustrated in Figur 4B.

With `CC12CC3CC(C)(C1)CC(N)(C3)C2` [memantine], the “inhibition of postsynaptic currents (reversibility)” value in assay [1] (OHCs held at -64 mV, dose-dependent response, Fig. 3) is recorded as “reversibly inhibited”. In addition, the concentration for half-maximal inhibition (IC50) in assay [1] (Rattus norvegicus, iPSC, OHCs held at -64 mV, high extracellular K+, Fig. 3B) is approximately 16.6 µM; in assay [2], approximately 1 µM.
As to `O=C1C[C@@H]2OCC=C3CN4CC[C@]56c7ccccc7N1[C@H]5[C@H]2[C@H]3C[C@H]46` [strychnine], the “complete inhibition of postsynaptic currents at (concentration)” value in assay [1] is recorded as 100 nM. In assay [2], the “complete inhibition of current responses at the acetylcholine receptor at (concentration)” value amounted to 1 µM and the “reversibility of block of the receptor” value is reported as “reversible block of the receptor”.
